{"source": "ChEMBL document CHEMBL4483862", "about": "“Open-source discovery of chemical leads for next-generation chemoprotective antimalarials” (2018)", "test_system": "Plasmodium berghei", "experiment": "Luciferase/luciferin-expressing antifolate-resistant parasites were used to infect a culture of HepG2 cells that were pre-incubated with compounds. Infected hepatocytes emit light due to the luciferase reaction. Assay results are presented as the percent inhibition of light emission compared to control. […]", "format": "functional", "conditions": "sporozoite; for IC90: read-out: LUCIFERASE INFECTION ASSAY - IC90", "key": {"[1]": {"conditions": "read-out: LUCIFERASE INFECTION ASSAY - IC50"}}, "note": "pIC50: −log10 of the molar value."}
{"smiles": "Clc1ccc2[nH]cc(CCNc3nc(Cl)nc4nc[nH]c34)c2c1", "values": [{"measurement": "pIC50", "setting": "HEPG2TOX_HILL_SLOPE 2.4, HEPG2TOX_R_SQUARED 0.982, PBLUC_HILL_SLOPE 2.19, PBLUC_R_SQUARED 0.753, read-out: LUCIFERASE INFECTION ASSAY - IC50", "result": 6.66}, {"measurement": "IC90", "result": 0.6, "unit": "µM"}]}
{"smiles": "N#Cc1cccc(-c2nnco2)c1", "values": [{"measurement": "pIC50", "setting": "[1]", "result": "< 5.00"}, {"measurement": "IC90", "result": "> 10", "unit": "µM"}]}
{"smiles": "CC1Cc2cc(C(=O)CSc3nnc(Cc4cccs4)n3C)ccc2N1S(C)(=O)=O", "note": "(stereo unspecified)", "values": [{"measurement": "pIC50", "setting": "HEPG2TOX_HILL_SLOPE 2.13, 1.88, HEPG2TOX_R_SQUARED 0.890, 0.990, PBLUC_HILL_SLOPE 2.16, PBLUC_R_SQUARED 0.278, read-out: LUCIFERASE INFECTION ASSAY - IC50", "result": 5.43}, {"measurement": "IC90", "result": "> 10", "unit": "µM"}]}
{"smiles": "CC(=O)Nc1ccc(-c2ccnc3n[nH]c(-c4ccsc4)c23)cc1", "values": [{"measurement": "pIC50", "setting": "HEPG2TOX_HILL_SLOPE 11.6, HEPG2TOX_R_SQUARED 0.801, PBLUC_HILL_SLOPE 2.91, PBLUC_R_SQUARED 0.114, read-out: LUCIFERASE INFECTION ASSAY - IC50", "result": 5.39}, {"measurement": "IC90", "result": 8.76, "unit": "µM"}]}
{"smiles": "COc1ccc(NS(=O)(=O)c2cc(NC(=O)c3ccsc3)ccc2Cl)cc1", "values": [{"measurement": "pIC50", "setting": "HEPG2TOX_HILL_SLOPE 1.65, HEPG2TOX_R_SQUARED 0.932, PBLUC_HILL_SLOPE 10.6, PBLUC_R_SQUARED 0.586, read-out: LUCIFERASE INFECTION ASSAY - IC50", "result": 6.47}, {"measurement": "IC90", "result": 0.419, "unit": "µM"}]}
{"smiles": "Cc1cc(C)c(Nc2nc(-c3c(-c4ccccc4)noc3C)cs2)c(C)c1", "values": [{"measurement": "pIC50", "setting": "FFLUC_HILL_SLOPE 43.6, FFLUC_R_SQUARED 0.276, HEPG2TOX_HILL_SLOPE 3.1, HEPG2TOX_R_SQUARED 0.635, PBLUC_HILL_SLOPE 7.7, PBLUC_R_SQUARED 0.763, read-out: LUCIFERASE INFECTION ASSAY - IC50", "result": 5.40}, {"measurement": "IC90", "result": 5.3, "unit": "µM"}]}
{"smiles": "C/C(=N\\NC(=O)c1ccccc1)c1ccccc1O", "values": [{"measurement": "pIC50", "setting": "HEPG2TOX_HILL_SLOPE 1.31, HEPG2TOX_R_SQUARED 0.966, PBLUC_HILL_SLOPE 10.4, PBLUC_R_SQUARED 0.464, read-out: LUCIFERASE INFECTION ASSAY - IC50", "result": "< 4.89"}, {"measurement": "IC90", "result": "> 13", "unit": "µM"}]}
{"smiles": "Cc1nc(=O)c2c([nH]1)NC(=O)CC2c1ccccc1C", "note": "(stereo unspecified)", "values": [{"measurement": "pIC50", "setting": "[1]", "result": "< 4.91"}, {"measurement": "IC90", "result": "> 12.3", "unit": "µM"}]}
{"smiles": "CCS(=O)(=O)N1CCC(C(=O)Nc2nnc(-c3ccc(Cl)cc3)o2)(c2ccccc2)CC1", "values": [{"measurement": "pIC50", "setting": "HEPG2TOX_HILL_SLOPE 1.78, 1.25, HEPG2TOX_R_SQUARED 0.428, 0.956, PBLUC_HILL_SLOPE 18.9, PBLUC_R_SQUARED 0.689, read-out: LUCIFERASE INFECTION ASSAY - IC50", "result": 5.97}, {"measurement": "IC90", "result": 1.21, "unit": "µM"}]}
{"smiles": "CCc1cccc(CC)c1NC(=O)/C(C#N)=C/c1ccccc1C(F)(F)F", "values": [{"measurement": "pIC50", "setting": "[1]", "result": 5.43}, {"measurement": "IC90", "result": 4.5, "unit": "µM"}]}
{"smiles": "CC(C)(C)c1ccc(NC(=O)c2sc3nc4c(c(-c5cccnc5)c3c2N)CCC4)cc1", "values": [{"measurement": "pIC50", "setting": "[1]", "result": "< 5.13"}, {"measurement": "IC90", "result": "> 7.46", "unit": "µM"}]}
{"smiles": "CNC(=O)c1ccc(CN(Cc2ccco2)Cc2cc3ccc(C)c(C)c3nc2Cl)cc1", "values": [{"measurement": "pIC50", "setting": "PBLUC_HILL_SLOPE 9.58, PBLUC_R_SQUARED 0.657, read-out: LUCIFERASE INFECTION ASSAY - IC50", "result": 6.13}, {"measurement": "IC90", "result": 1.48, "unit": "µM"}]}
{"smiles": "CCNC(=O)COc1ccc(/C=C2\\COc3ccccc3C2=O)cc1OC", "values": [{"measurement": "pIC50", "setting": "[1]", "result": "< 5.00"}, {"measurement": "IC90", "result": "> 10", "unit": "µM"}]}
{"smiles": "CCOC(=O)c1cc(OC)c2cccc(CN3CCCCCC3(C)C(=O)NCC(C)C)c2c1", "note": "(stereo unspecified)", "values": [{"measurement": "pIC50", "setting": "PBLUC_HILL_SLOPE 12.1, PBLUC_R_SQUARED 0.495, read-out: LUCIFERASE INFECTION ASSAY - IC50", "result": 5.16}, {"measurement": "IC90", "result": "> 7.26", "unit": "µM"}]}
{"smiles": "COc1ccc(C2CCCCCN2C(=O)c2csc(-c3ccsc3)n2)cc1", "note": "(stereo unspecified)", "values": [{"measurement": "pIC50", "setting": "HEPG2TOX_HILL_SLOPE 2.14, HEPG2TOX_R_SQUARED 0.977, PBLUC_HILL_SLOPE 2.8, PBLUC_R_SQUARED 0.0937, read-out: LUCIFERASE INFECTION ASSAY - IC50", "result": 5.27}, {"measurement": "IC90", "result": "> 10", "unit": "µM"}]}
{"smiles": "CC1(C)CC(=O)C=C(Nc2ccc(Oc3ccccc3)cc2)C1", "values": [{"measurement": "pIC50", "setting": "PBLUC_HILL_SLOPE 1.19, PBLUC_R_SQUARED 0.428, read-out: LUCIFERASE INFECTION ASSAY - IC50", "result": 5.66}, {"measurement": "IC90", "result": "> 10.7", "unit": "µM"}]}
{"smiles": "COc1ccc2cc(C3(C)NC(=O)N(Cc4nc(N)nc(Nc5ccc(F)cc5)n4)C3=O)ccc2c1", "note": "(stereo unspecified)", "values": [{"measurement": "pIC50", "setting": "[1]", "result": "< 5.00"}, {"measurement": "IC90", "result": "> 10", "unit": "µM"}]}
{"smiles": "FC(F)(F)Oc1cccc(-c2cnc3ccc(-c4cncnc4)nn23)c1", "values": [{"measurement": "pIC50", "setting": "PBLUC_HILL_SLOPE 4.12, PBLUC_R_SQUARED 0.479, read-out: LUCIFERASE INFECTION ASSAY - IC50", "result": 5.64}, {"measurement": "IC90", "result": 3.91, "unit": "µM"}]}
{"smiles": "Cc1cc(NC(C)C)n2ncc(-c3ccc(F)cc3)c2n1", "values": [{"measurement": "pIC50", "setting": "FFLUC_HILL_SLOPE 0.941, FFLUC_R_SQUARED 0.965, HEPG2TOX_HILL_SLOPE 0.182, HEPG2TOX_R_SQUARED 0.624, PBLUC_HILL_SLOPE 0.618, PBLUC_R_SQUARED 0.897, read-out: LUCIFERASE INFECTION ASSAY - IC50", "result": 6.80}, {"measurement": "IC90", "result": 5.57, "unit": "µM"}]}
{"smiles": "O=C(Nc1nc2ccccn2c1C(=O)NC1CCCC1)c1ccc(Cl)cc1Cl", "values": [{"measurement": "pIC50", "setting": "HEPG2TOX_HILL_SLOPE 1.22, HEPG2TOX_R_SQUARED 0.989, PBLUC_HILL_SLOPE 22.2, PBLUC_R_SQUARED 0.579, read-out: LUCIFERASE INFECTION ASSAY - IC50", "result": 5.62}, {"measurement": "IC90", "result": 2.66, "unit": "µM"}]}
{"smiles": "CSc1nccc(-c2sc(SC)c3c2CC(C)(C)CC3=O)n1", "values": [{"measurement": "pIC50", "setting": "[1]", "result": "< 5.03"}, {"measurement": "IC90", "result": "> 9.41", "unit": "µM"}]}
{"smiles": "c1ccc2c(CN3CCN(c4ncnc5sccc45)CC3)csc2c1", "values": [{"measurement": "pIC50", "setting": "HEPG2TOX_HILL_SLOPE 3.07, HEPG2TOX_R_SQUARED 0.815, PBLUC_HILL_SLOPE 3.96, PBLUC_R_SQUARED 0.666, read-out: LUCIFERASE INFECTION ASSAY - IC50", "result": 5.16}, {"measurement": "IC90", "result": "> 10", "unit": "µM"}]}
{"smiles": "COc1ccc(-c2cnc3cnc(-c4ccc(CNc5ccccc5)cc4)cn23)cn1", "values": [{"measurement": "pIC50", "setting": "[1]", "result": 5.57}, {"measurement": "IC90", "result": 8.05, "unit": "µM"}]}
{"smiles": "C=CCn1c(SCc2c(C(=O)OCC)sc(N)c2C#N)nnc1-c1ccc(Cl)cc1Cl", "values": [{"measurement": "pIC50", "setting": "[1]", "result": "< 5.00"}, {"measurement": "IC90", "result": "> 10", "unit": "µM"}]}
{"smiles": "COc1ccc(OC)c(CN2CCN(c3nc(-c4cccnc4)nc4sc(C)c(C)c34)CC2)c1", "values": [{"measurement": "pIC50", "setting": "PBLUC_HILL_SLOPE 4.71, PBLUC_R_SQUARED 0.569, read-out: LUCIFERASE INFECTION ASSAY - IC50", "result": 5.37}, {"measurement": "IC90", "result": 6.84, "unit": "µM"}]}
{"smiles": "Cc1ccc(-n2c(C)cc(C(=O)COC(=O)c3[nH]nc4ccccc34)c2C)cc1", "values": [{"measurement": "pIC50", "setting": "HEPG2TOX_HILL_SLOPE 1.65, HEPG2TOX_R_SQUARED 0.879, read-out: LUCIFERASE INFECTION ASSAY - IC50", "result": "< 5.00"}, {"measurement": "IC90", "result": "> 10", "unit": "µM"}]}
{"smiles": "CCn1c(SCCOc2ccccc2Cl)nnc1-c1cc(-c2ccccc2)nc2ccccc12", "values": [{"measurement": "pIC50", "setting": "PBLUC_HILL_SLOPE 1.65, PBLUC_R_SQUARED 0.274, read-out: LUCIFERASE INFECTION ASSAY - IC50", "result": "< 5.00"}, {"measurement": "IC90", "result": "> 10", "unit": "µM"}]}
{"smiles": "Cc1ccccc1-n1c(SCc2nc3ccccc3c(=O)n2CC#N)nnc1-c1ccc(C(C)(C)C)cc1", "values": [{"measurement": "pIC50", "setting": "FFLUC_HILL_SLOPE 0.956, FFLUC_R_SQUARED 0.529, read-out: LUCIFERASE INFECTION ASSAY - IC50", "result": "< 5.00"}, {"measurement": "IC90", "result": "> 10", "unit": "µM"}]}
{"smiles": "Cn1cccc1C(=O)Nc1nc(-c2ccccn2)cs1", "values": [{"measurement": "pIC50", "setting": "HEPG2TOX_HILL_SLOPE 2.43, HEPG2TOX_R_SQUARED 0.643, PBLUC_HILL_SLOPE 14.5, PBLUC_R_SQUARED 0.519, read-out: LUCIFERASE INFECTION ASSAY - IC50", "result": 5.46}, {"measurement": "IC90", "result": 4.04, "unit": "µM"}]}
{"smiles": "CCNC(=S)N/N=C1\\C(=O)Nc2ccc(C(C)C)cc21", "values": [{"measurement": "pIC50", "setting": "[1]", "result": 5.38}, {"measurement": "IC90", "result": 7.94, "unit": "µM"}]}
{"smiles": "Cc1cc(NC(=O)c2ccco2)sc1C(=O)Nc1nnc[nH]1", "values": [{"measurement": "pIC50", "setting": "[1]", "result": "< 5.00"}, {"measurement": "IC90", "result": "> 10", "unit": "µM"}]}
{"smiles": "COc1cc(NC(=S)Nc2cccc(OC(F)(F)F)c2)cc(C(F)(F)F)c1", "values": [{"measurement": "pIC50", "setting": "PBLUC_HILL_SLOPE 0.721, PBLUC_R_SQUARED 0.563, read-out: LUCIFERASE INFECTION ASSAY - IC50", "result": 5.63}, {"measurement": "IC90", "result": "> 8.04", "unit": "µM"}]}
{"smiles": "O=C(CCc1nc(=O)c2ccccc2[nH]1)OC(C(=O)c1c[nH]c2ccccc12)c1ccccc1", "note": "(stereo unspecified)", "values": [{"measurement": "pIC50", "setting": "[1]", "result": "< 5.00"}, {"measurement": "IC90", "result": "> 10", "unit": "µM"}]}
